Measured values from patent publication US7615569B2, “Inhibitors of ion channels” (Icagen, Inc., priority 2005, dated 2009).

How the values were obtained:
hSCN3A = biological target: T1, hSCN3A (Homo sapiens, UniProt Q9NY46); experiment: SCN3A inhibitory activity in HEK cells stably expressing hSCN3A (whole-cell patch clamp / radiotracer efflux HTS); type: cell-based; settings: HEK cells stably transfected with hSCN3A
T1 construct: expressed in transfected cells

[1] = cited from earlier work
Nav1.6 = Nav1.6 (Homo sapiens, UniProt Q9UQD0); settings: read-out: TTX IC-50; cited from earlier work
Nav1.2 = Nav1.2 (Homo sapiens, UniProt Q99250); settings: read-out: TTX IC-50; cited from earlier work
Nav1.3 = Nav1.3 (Homo sapiens, UniProt Q9NY46); settings: read-out: TTX IC-50; cited from earlier work
Nav1.9 = Nav1.9 (Homo sapiens, UniProt Q9UI33); settings: read-out: TTX IC-50; cited from earlier work
Nav1.1 = Nav1.1 (Homo sapiens, UniProt P35498); settings: read-out: TTX IC-50; cited from earlier work
Nav1.8 = Nav1.8 (Homo sapiens, UniProt Q9Y5Y9); settings: read-out: TTX IC-50; cited from earlier work
Sequence of Nav1.8 (Q9Y5Y9 whole entry, looked up): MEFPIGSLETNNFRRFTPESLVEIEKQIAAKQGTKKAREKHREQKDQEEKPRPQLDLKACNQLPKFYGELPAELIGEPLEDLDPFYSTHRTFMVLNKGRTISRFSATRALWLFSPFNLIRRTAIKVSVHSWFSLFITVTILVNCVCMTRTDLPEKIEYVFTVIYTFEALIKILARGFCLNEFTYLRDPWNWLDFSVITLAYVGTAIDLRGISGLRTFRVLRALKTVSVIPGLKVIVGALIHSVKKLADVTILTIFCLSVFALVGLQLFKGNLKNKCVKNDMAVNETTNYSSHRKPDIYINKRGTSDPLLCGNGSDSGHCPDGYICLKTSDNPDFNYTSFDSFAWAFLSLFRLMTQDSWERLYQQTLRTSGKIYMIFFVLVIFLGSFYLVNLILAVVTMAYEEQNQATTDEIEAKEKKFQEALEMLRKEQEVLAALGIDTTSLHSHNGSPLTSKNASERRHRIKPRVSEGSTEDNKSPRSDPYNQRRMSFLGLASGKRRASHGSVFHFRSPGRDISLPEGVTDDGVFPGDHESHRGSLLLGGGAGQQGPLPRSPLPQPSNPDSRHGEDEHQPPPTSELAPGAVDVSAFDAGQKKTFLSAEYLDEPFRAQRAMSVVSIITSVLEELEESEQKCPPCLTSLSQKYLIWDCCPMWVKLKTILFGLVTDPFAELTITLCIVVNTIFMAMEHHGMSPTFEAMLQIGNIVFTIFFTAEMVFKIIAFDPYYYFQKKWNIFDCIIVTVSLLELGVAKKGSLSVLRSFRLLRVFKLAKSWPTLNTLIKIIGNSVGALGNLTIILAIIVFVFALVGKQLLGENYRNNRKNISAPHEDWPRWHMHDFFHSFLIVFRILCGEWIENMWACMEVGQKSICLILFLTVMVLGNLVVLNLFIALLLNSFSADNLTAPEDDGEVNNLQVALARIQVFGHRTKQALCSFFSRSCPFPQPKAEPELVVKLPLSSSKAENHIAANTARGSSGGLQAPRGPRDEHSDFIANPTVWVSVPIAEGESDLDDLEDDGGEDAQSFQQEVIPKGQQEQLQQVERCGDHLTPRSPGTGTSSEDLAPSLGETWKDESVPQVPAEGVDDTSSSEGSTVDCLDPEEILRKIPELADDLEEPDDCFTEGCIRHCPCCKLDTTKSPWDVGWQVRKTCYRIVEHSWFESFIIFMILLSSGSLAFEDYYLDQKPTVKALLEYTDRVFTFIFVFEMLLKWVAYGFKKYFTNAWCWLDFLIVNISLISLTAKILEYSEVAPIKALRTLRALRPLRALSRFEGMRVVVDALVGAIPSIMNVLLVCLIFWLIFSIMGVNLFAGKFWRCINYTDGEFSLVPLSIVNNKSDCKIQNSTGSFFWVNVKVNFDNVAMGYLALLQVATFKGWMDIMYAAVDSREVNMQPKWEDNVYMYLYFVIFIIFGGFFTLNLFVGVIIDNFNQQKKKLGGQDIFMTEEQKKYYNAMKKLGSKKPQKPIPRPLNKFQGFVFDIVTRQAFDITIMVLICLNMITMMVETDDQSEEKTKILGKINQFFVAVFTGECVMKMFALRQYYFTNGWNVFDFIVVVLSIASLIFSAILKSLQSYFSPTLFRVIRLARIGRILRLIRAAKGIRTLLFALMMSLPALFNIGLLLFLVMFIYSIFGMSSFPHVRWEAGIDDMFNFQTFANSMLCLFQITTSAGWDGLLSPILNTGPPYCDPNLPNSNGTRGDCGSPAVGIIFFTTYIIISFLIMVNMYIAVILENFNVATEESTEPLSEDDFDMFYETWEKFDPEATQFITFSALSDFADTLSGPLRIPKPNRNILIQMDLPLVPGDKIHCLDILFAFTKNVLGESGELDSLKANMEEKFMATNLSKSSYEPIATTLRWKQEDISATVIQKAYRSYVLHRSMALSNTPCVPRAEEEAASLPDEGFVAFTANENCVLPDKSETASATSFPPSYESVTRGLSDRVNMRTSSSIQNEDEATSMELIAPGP

T1 sequence (Q9NY46 whole entry): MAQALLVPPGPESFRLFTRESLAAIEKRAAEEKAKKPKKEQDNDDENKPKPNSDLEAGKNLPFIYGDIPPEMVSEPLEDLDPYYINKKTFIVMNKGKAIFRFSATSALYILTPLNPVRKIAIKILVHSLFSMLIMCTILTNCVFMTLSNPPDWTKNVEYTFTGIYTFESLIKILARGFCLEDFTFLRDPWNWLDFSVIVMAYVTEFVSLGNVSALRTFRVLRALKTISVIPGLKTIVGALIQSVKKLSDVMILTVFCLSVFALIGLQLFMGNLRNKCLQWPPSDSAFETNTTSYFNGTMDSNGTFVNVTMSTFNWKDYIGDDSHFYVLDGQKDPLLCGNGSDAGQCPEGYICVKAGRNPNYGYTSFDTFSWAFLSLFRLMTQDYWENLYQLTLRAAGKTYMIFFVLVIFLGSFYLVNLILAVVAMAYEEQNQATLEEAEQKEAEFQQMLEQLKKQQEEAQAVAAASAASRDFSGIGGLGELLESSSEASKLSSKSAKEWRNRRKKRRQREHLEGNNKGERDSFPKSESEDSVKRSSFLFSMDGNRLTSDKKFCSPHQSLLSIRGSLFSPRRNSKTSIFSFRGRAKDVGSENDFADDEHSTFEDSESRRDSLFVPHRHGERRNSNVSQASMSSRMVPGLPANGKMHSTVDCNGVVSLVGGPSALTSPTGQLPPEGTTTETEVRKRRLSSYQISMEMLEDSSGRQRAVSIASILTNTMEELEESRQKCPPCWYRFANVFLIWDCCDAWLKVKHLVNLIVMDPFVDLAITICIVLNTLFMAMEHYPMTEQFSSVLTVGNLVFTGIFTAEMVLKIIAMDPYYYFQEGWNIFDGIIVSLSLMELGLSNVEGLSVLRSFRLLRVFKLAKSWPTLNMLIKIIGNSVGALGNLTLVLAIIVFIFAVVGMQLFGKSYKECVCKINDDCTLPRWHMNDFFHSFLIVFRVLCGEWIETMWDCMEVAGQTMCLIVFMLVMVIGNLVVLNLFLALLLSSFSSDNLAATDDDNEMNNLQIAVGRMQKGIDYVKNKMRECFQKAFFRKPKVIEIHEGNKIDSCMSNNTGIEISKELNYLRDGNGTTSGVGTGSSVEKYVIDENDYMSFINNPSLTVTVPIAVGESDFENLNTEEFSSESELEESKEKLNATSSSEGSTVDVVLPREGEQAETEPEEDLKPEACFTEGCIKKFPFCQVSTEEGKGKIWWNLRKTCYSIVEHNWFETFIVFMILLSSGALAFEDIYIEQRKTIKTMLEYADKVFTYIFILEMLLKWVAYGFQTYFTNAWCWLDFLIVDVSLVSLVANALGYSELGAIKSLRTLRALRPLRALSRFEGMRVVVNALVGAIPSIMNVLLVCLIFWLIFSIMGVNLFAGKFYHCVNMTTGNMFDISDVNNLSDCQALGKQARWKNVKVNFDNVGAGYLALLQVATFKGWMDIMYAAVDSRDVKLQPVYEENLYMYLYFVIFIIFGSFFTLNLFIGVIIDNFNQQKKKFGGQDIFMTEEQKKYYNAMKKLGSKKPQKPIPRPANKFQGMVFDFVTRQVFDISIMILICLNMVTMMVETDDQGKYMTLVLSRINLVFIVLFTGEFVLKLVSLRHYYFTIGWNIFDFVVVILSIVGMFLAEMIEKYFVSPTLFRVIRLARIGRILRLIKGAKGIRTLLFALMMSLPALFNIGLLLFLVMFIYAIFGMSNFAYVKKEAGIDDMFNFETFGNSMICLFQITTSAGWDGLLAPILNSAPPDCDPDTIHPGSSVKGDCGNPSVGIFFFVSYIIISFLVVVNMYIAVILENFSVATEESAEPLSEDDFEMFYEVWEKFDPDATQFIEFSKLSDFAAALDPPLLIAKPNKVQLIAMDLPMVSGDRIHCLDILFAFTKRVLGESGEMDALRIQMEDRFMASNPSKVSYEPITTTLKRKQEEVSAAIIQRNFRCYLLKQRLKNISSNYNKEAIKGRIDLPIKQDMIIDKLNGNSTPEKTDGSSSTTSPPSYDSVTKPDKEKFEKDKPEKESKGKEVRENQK
Sequence of Nav1.3 (Q9NY46 whole entry, looked up): as the sequence (Q9NY46 whole entry) above

Question: Which IC50 (hSCN3A) does the source give for `O=S(=O)(Cc1ncc(Cl)s1)c1ccc(-c2nc(CCc3cc(Cl)cc(Cl)c3)c[nH]2)cc1` [Compound 122, 5-Chloro-2-(4-{4-[2-(3,5-dichloro-phenyl)-ethyl]-1H-imidazol-2-yl}-benzenesulfonylmethyl)-thiazole] here?
Answer: < 100 nM

Question: For `O=S(=O)(Nc1nccs1)c1ccc(-c2nnc(Cc3ccc(Cl)c(Cl)c3)[nH]2)cc1` [Compound 95, 4-[5-(3,4-Dichloro-benzyl)-4H-[1,2,4]triazol-3-yl]-N-thiazol-2-yl-benzenesulfonamide], which IC50 (hSCN3A) is on record?
Answer: < 100 nM

Question: Which IC50 (hSCN3A) does the source give for `O=S(=O)(Nc1nccs1)c1ccc(-c2nc(Cc3ccc(C(F)(F)F)cc3)c[nH]2)cc1` [Compound 34, N-Thiazol-2-yl-4-[4-(4-trifluoromethyl-benzyl)-1H-imidazol-2-yl]-benzenesulfonamide] here?
Answer: 100 to 500 nM

Question: Which IC50 (hSCN3A) does the source give for `O=S(=O)(NCc1nccs1)c1ccc(-c2nc(Cc3cc(F)cc(F)c3)c[nH]2)cc1` [Compound 98, 4-[4-(3,5-Difluoro-benzyl)-1H-imidazol-2-yl]-N-thiazol-2-ylmethyl-benzenesulfonamide] here?
Answer: > 1000 nM

Question: Which IC50 (hSCN3A) does the source give for `O=S(=O)(Nc1nccs1)c1ccc(-c2nnc(COc3ccc(C(F)(F)F)cn3)[nH]2)cc1` [Compound 118, N-thiazol-2-yl-4-[5-(5-trifluoromethyl-pyridin-2-yloxymethyl)-4H-[1,2,4]triazol-3-yl]-benzenesulfonamide] here?
Answer: > 1000 nM

Question: With `O=S(=O)(Nc1nccs1)c1ccc(-c2nc(COc3c(Cl)cccc3Cl)n[nH]2)cc1F` [Compound 115, 4-[5-(2,6-Dichloro-phenoxymethyl)-2H-[1,2,4]triazol-3-yl]-2-fluoro-n-thiazol-2-yl-benzenesulfonamide] as the compound, how does the IC50 (hSCN3A) read?
Answer: 100 to 500 nM

Question: With `O=S(=O)(Nc1nccs1)c1ccc(NCC(c2ccccc2)c2ccccc2)nc1` [Compound 124, 6-(2,2-Diphenyl-ethylamino)-pyridine-3-sulfonic acid thiazol-2-ylamide] as the compound, how does the IC50 (hSCN3A) read?
Answer: 500 to 1000 nM

Question: With `O=S(=O)(Nc1nccs1)c1ccc(-c2ncc(Cc3ccc(Cl)cc3)[nH]2)cc1` [Compound 8, 4-[5-(4-Chloro-benzyl)-1H-imidazol-2-yl]-N-thiazol-2-yl-benzenesulfonamide] as the compound, how does the IC50 (hSCN3A) read?
Answer: 100 to 500 nM

Question: Which IC50 (hSCN3A) does the source give for `O=S(=O)(Nc1nccs1)c1ccc(-c2nc(C(c3ccccc3)C3CCCCC3)c[nH]2)cc1` (centres unmarked) [Compound 47, 4-[4-(Cyclohexyl-phenyl-methyl)-1H-imidazol-2-yl]-N-thiazol-2-yl-benzenesulfonamide] here?
Answer: 100 to 500 nM

Question: Which “patients respond to gabapentin treatment for neuropathic pain” value [1] does the source give for `NCC1(CC(=O)O)CCCCC1` [gabapentin] here?
Answer: 30%

Question: For `O=S(=O)(Nc1nccs1)c1ccc(-c2nc(C3(c4ccc(Cl)cc4)CCC3)c[nH]2)cc1` [Compound 25, 4-{4-[1-(4-Chloro-phenyl)-cyclobutyl]-1H-imidazol-2-yl}-N-thiazol-2-yl-benzenesulfonamide], which IC50 (hSCN3A) is on record?
Answer: 100 to 500 nM

Question: Which IC50 (hSCN3A) does the source give for `O=S(=O)(Nc1nccs1)c1ccc(-c2nc(CCc3cccc(Cl)c3)c[nH]2)cc1` [Compound 28, 4-{4-[2-(3-Chloro-phenyl)-ethyl]-1H-imidazol-2-yl}-N-thiazol-2-yl-benzenesulfonamide] here?
Answer: 100 to 500 nM

Question: For `O=S(=O)(Nc1nccs1)c1ccc(-c2nc(CCCOc3ccc(Cl)cc3Cl)c[nH]2)cc1` [Compound 11, 4-{4-[3-(2,4-Dichloro-phenoxy)-propyl]-1H-imidazol-2-yl}-N-thiazol-2-yl-benzenesulfonamide], which IC50 (hSCN3A) is on record?
Answer: < 100 nM

Question: For `O=S(=O)(Nc1nccs1)c1ccc(-c2nc(C3CCC(c4ccc(Cl)cc4)CC3)c[nH]2)cc1` (centres unmarked) [Compound 12, 4-{4-[4-(4-Chloro-phenyl)-cyclohexyl]-1H-imidazol-2-yl}-N-thiazol-2-yl-benzenesulfonamide], which IC50 (hSCN3A) is on record?
Answer: < 100 nM

Question: Which IC50 (hSCN3A) does the source give for `O=S(=O)(Nc1nccs1)c1ccc(-c2nc(Cc3cccc(OC(F)(F)F)c3)c[nH]2)cc1` [Compound 43, N-Thiazol-2-yl-4-[4-(3-trifluoromethoxy-benzyl)-1H-imidazol-2-yl]-benzenesulfonamide] here?
Answer: 500 to 1000 nM

Question: For `CC1(Cc2ccc(Cl)c(Cl)c2)N=C(c2ccc(S(=O)(=O)Nc3nccs3)cc2)NC1=O` (centres unmarked) [Compound 107, 4-[4-(3,4-Dichloro-benzyl)-4-methyl-5-oxo-4,5-dihydro-1H-imidazol-2-yl]-N-thiazol-2-yl-benzenesulfonamide], which IC50 (hSCN3A) is on record?
Answer: > 1000 nM

Question: With `O=S(=O)(Nc1nccs1)c1ccc(-c2nc(CCc3cc(C(F)(F)F)ccc3C(F)(F)F)c[nH]2)cc1` [Compound 22, 4-{4-[2-(2,5-Bis-trifluoromethyl-phenyl)-ethyl]-1H-imidazol-2-yl}-N-thiazol-2-yl-benzenesulfonamide] as the compound, how does the IC50 (hSCN3A) read?
Answer: 100 to 500 nM

Question: With `NC1=N[C@H](O)[C@H]2[C@H]3O[C@]4(O)O[C@@H]([C@@H](O)[C@@]2(N1)[C@@H]4O)[C@]3(O)CO` [TTX, tetrodotoxin] as the compound, how does the IC50 (Nav1.6) read?
Answer: 6 nM

Question: And the IC50 (Nav1.2)?
Answer: 10 nM

Question: And the IC50 (Nav1.3)?
Answer: 15 nM

Question: And the IC50 (Nav1.9)?
Answer: 1000 nM

Question: And the IC50 (Nav1.1)?
Answer: 10 nM

Question: And the IC50 (Nav1.8)?
Answer: 50000 nM
